Assay results as given in PMC5572722, “Dimerization in tailoring uptake efficacy of the HSV-1 derived membranotropic peptide gH625” (Scientific Reports, 2017).
Positions of bridges follow the written chain, without caps; N, C: chain ends. Residues, ends and D or L forms follow the SMILES beside them. Chains are numbered I, II in the order given. No end group written: not given here.

Tests used:
[1] = Acceptor photobleaching FRET, GUV fusion; conditions: NBD/Rhodamine GUVs mixed 1:4 with unlabelled GUVs, peptide:GUVs ratio 0.5
From the text: Figure 10 Mean fluorescence of GUVs suspension resulting after gH625 or gH625-H7 administration, calculated by the AccPbFRET plug in of ImageJ. The FRET efficiency E is 0.729, calculated as follows: E = 1 − (F Donor quenched by acceptor/F Donor de quenched) (A). Time course of FRET effect due to gH625 or gH625-H7 administration to GUVs. Values are expressed as integrated density, defined as the mean gray value per the mean area. Each time point represents the same field acquired in both channels. Each data set represents the mean of at least 10 GUVs for each field (B,C).
To evaluate the fusion of GUVs due to the addition of gH625 and gH625-H7, a slightly modified protocol for acceptor photobleaching FRET was performed. […] An aliquot of the mix was charged in the Burker’s chamber under Axioskop (Zeiss) fluorescence microscope; images were acquired using Axiocam Mrc5 CCD camera (Zeiss) in both at 525 nm and 615 nm and analysed with the Physiology module of Axiovision software 4.8 (Zeiss) to calculate the basic fluorescence of the donor. Samples were then treated with gH625 and gH625-H7 to a peptide:GUVs ratio of 0.5 and images were immediately acquired to calculate the fluorescence of the donor and the photobleaching of the acceptor (only used as a control for the amount of bleaching) after the exposure to peptides. […]

[2] = GUV image analysis, shape descriptors (light sheet fluorescence microscopy); conditions: [(treated GUVs − control GUVs)/control GUVs]*100
From the text: GUVs appear dark against the background as a consequence of the difference in refractive index of GUVs contents (sucrose solution) and the surrounding medium (glucose solution). A white halo appears around the vesicle. Formation of pores and of protuberances may be thus evidenced. GUVs appear under differential interference contrast (DIC) round shaped with an average smaller area compared to GUVs treated with gH625 (Table 5, Figure 8). […] The addition of gH625-H7 to GUVs produced a similar effect of gH625 with the only difference that it induces an enhancement of the GUVs fusion tendency (Figure 8). gH625 and gH625-H7 enhance the mean area and perimeter of GUVs (Figure 9A,C). […] Main shape descriptor analysis confirms that the addition of gH625 or gH625-H7 induces an increase in area and perimeter also indicating a decrease in circularity and roundness parameters (Table 5).
LUVs and SUVs for fluorescence,circular dichroism and surface plasmon resonance, consisting of DOPG, DOPG/Chol (60/40 mol/mol), DOPC/Chol (60/40 mol/mol), and when necessary containing Rho-PE and NBD-PE, or ANTS and DPX, were prepared in 5 mM HEPES, 100 mM NaCl, pH 7.4[66]. Aliquots containing the necessary amount of lipids were dried from a chloroform solution with a nitrogen gas stream and lyophilized overnight to produce dry lipid films which were then resuspended in buffer and vortexed for 1 h; the lipid suspension was freeze-thawed 6 times to obtain multilamellar vesicles (MLV). […] Lipid concentrations of liposome suspensions were determined by phosphate analysis. […]
GUVs were used upon one day from preparation. Ten microliters of fluorescent GUVs were analyzed (before and after the addition of gH625 or gH625-H7) under a custom made light sheet fluorescent microscope equipped with five laser lines (λ = 375 nm Coherent Cube, λ = 405 nm Coherent Cube, λ = 473 nm Laserworld Blue-200, λ = 532 nm Coherent Compass 215 M-10 DPSS laser and λ = 632.8 nm Thorlabs HRR005S Helium-Neon laser), a motorized microscope MS-2000 XY stage with LX-4000 controller (Applied Scientific Instrumentation), a Focus Drive motorized Z stage (Tofra Inc.) and Nano-F200S nanopositioner controlled by Nanodrive® controller (Mad City Labs); all devices were managed by MicroManager software. […] The emerging fluorescence was detected by the Orca flash 2.8 sCMOS camera (Hamamatsu) driven by Dalsa Xcelera (Teledyne DALSA) PCIe card mounted on AMD FX-8 core 3.5 GHz, 32 Gb RAM pc running Windows 8.1 (Microsoft). […] GUV parameters were calculated by the Analyze particles ImageJ plugin; a minimum size of 5 μm^2 and circularity of at least […] Circularity=4π×[Area]/[Perimeter]^2 with a value of 1.0 indicating a perfect circle) was considered. […]

[3] = Lipid mixing (NBD/Rho FRET membrane fusion); conditions: lipid 0.1 mM, 25 °C
From the text: In order to gain insight into the ability to interact and perturb the lipid membrane, nitrobenzoxadiazole (NBD) and Rhodamine (Rho) were used as the donor and acceptor of fluorescence energy transfer. Dilution of labelled vesicles caused by peptide induced membrane fusion, determines a larger average distance between fluorescent and quenching lipids and thus a reduction in the fluorescence energy transfer efficiency. […] The three peptides interact more strongly with LUVs containing cholesterol, confirming the preference for more rigid membranes.
Figure 1 Peptide-promoted membrane fusion as determined by lipid mixing of gH625 (A), gH625-H7 (B) and gH625-G7 (C) in LUVs composed of: DOPG, DOPG/Chol 60/40 (mol/mol) and DOPC/Chol 60/40 (mol/mol). […] Lipid concentration is 0.1 mM. […] Panel D reports the peptide-promoted membrane fusion of the three peptides in DOPG/Chol LUVs 60/40 (mol/mol).
A cut off filter at 515 nm was used.

Row | Molecule | increase of donor (NBD) fluorescence compared to GUVs alone [1] [fold] | Var % circularity versus GUVs alone [2] [%] | Var % roundness versus GUVs alone [2] [%] | lipid mixing activity in DOPG/Chol LUVs ([3]; compared to the other peptides) | lipid mixing activity in DOPG LUVs ([3]; average of three experiments)
1 | I: HGLASTLTRWAHYNALIRAFGCGKKKK-NH2 / II: HGLASTLTRWAHYNALIRAFGCGKKKK-NH2 (disulfide I:22-II:22) [gH625-H7] | 3.92 | −33.33 | −18.18 | significantly higher activity | –
2 | CC[C@H](C)[C@H](NC(=O)[C@H](CC(C)C)NC(=O)[C@H](C)NC(=O)[C@H](CC(N)=O)NC(=O)[C@H](Cc1ccc(O)cc1)NC(=O)[C@H](Cc1c[nH]cn1)NC(=O)[C@H](C)NC(=O)[C@H](Cc1c[nH]c2ccccc12)NC(=O)[C@H](CCCNC(=N)N)NC(=O)[C@@H](NC(=O)[C@H](CC(C)C)NC(=O)[C@@H](NC(=O)[C@H](CO)NC(=O)[C@H](C)NC(=O)[C@H](CC(C)C)NC(=O)CNC(=O)[C@@H](N)Cc1c[nH]cn1)[C@@H](C)O)[C@@H](C)O)C(=O)N[C@@H](CCCNC(=N)N)C(=O)N[C@@H](C)C(=O)N[C@@H](Cc1ccccc1)C(N)=O [gH625] (H-HGLASTLTRWAHYNALIRAF-NH2) | 3.71 | −8.33 | −10.60 | – | less active than the other two
